Data as given in patent US20230357373A1, “METHODS AND COMPOSITIONS FOR […] TREATING FIBROSIS” (Mie University, priority 2019, published 2023).

Tests used:
[1] = system: A549 alveolar epithelial cells; assay: Apoptosis assay by flow cytometry (annexin V / propidium iodide) in A549 cells; type: cell-based, human; settings: for apoptosis of alveolar epithelial cells: 10 μM peptide, 24 h
Method: (§1) The A549 and NHBE cells were cultured in DMEM supplemented with 10% fetal calf serum, 0.03% (w/v) L-glutamine, 100 IU/ml penicillin and 100 μg/ml streptomycin in a humidified, 5% CO2 atmosphere at 37° C. We used A549 cell lines in most experiments because they have higher potential growth and mimic the phenotype of alveolar type II cells more than primary NHBE cells (NPL82, NPL83); and in addition, these primary cells usually easily change phenotype or become senescent after a short period of culture.
(§2) A549 and NBHE cells (4×10^5 cells/well) were seeded into 12-well plates, cultured to sub-confluency, washed and then cultured in serum free medium containing 10% of each bacterial supernatant for 48 h. Non-inoculated hypersaline medium was used as control. The cells were analyzed for apoptosis by flow cytometry (FACScan, BD Biosciences, Oxford, UK) after staining with fluorescein-labelled annexin V and propidium iodide (FITC Annexin V Apoptosis Detection Kit with PI, Biolegend, San Diego, CA). Flow cytometry gating strategy used in the experiments is described in FIGS. 34A-34C. Under physiological conditions, phosphatidylcholine is exposed externally while phosphatidylserine (PS) is located on the inner surface of the lipid bilayer of cellular membranes. See NPL84. During apoptosis, PS is translocated from the cytoplasmic face of the plasma membrane to the cell surface. Id.

[2] = system: normal human bronchial epithelial (NHBE) cells; assay: Apoptosis assay by flow cytometry in normal human bronchial epithelial cells; type: cell-based; settings: 10 μM, 48 h
Method: More specifically, FIGS. 19A-19B show a flow cytometry analysis of normal human bronchial epithelial (NHBE) cells after culturing for 48 h in DMEM medium containing 10 μM of corisin or of its scrambled sequence. Each treatment group had n=4. Bars indicate the means ±S.D. Statistical analysis by ANOVA with Tukey's test. *p<0.001.
as §1
A549 and NBHE cells (4×10^5 cells/well) were seeded into 12-well plates, cultured to sub-confluency, washed and then cultured in serum free medium containing 10% of each bacterial supernatant for 48 h. Non-inoculated hypersaline medium was used as control. The cells were analyzed for apoptosis by flow cytometry (FACScan, BD Biosciences, Oxford, UK) after staining with fluorescein-labelled annexin V and propidium iodide (FITC Annexin V Apoptosis Detection Kit with PI, Biolegend, San Diego, CA). […]

[3] = system: normal human bronchial epithelial (NHBE) cells; assay: Western blotting of cleaved caspase-3 and Akt in NHBE cell lysates; type: cell-based
Method: Each treatment group had n=4. A representative blot of each treatment group is shown.
FIGS. 19D and 19E show the intensity of the Western blot membrane bands as quantified by densitometry using Image? software. Each treatment group had n=4. Bars indicate the means ±S.D. Statistical analysis was performed by one-tailed Mann-Whitney U test. *p<0.05.
The cells for Western blot analysis were washed twice with ice-cold phosphate-buffered saline and then lysed in radioimmunoprecipitation assay (RIPA) buffer (10 mM Tris-Cl (pH 8.0), 1 mM EDTA, 1% Triton X-100, 0.1% sodium deoxycholate, 0.1% SDS, 140 mM NaCl, 1 mM phenylmethylsulfonyl fluoride) supplemented with protease/phosphatase inhibitors (1 mM orthovandate, 50 mM β-glycerophosphate, 10 mM sodium pyrophosphate, 5 μg/mL leupeptin, 2 μg/mL aprotinin, 5 mM sodium fluoride). The suspensions were centrifuged (17,000 x g, 10 min at 4° C.), and the protein content was determined using Pierce BCA protein assay kit (Thermo Fisher Scientific Incorporation, Waltham, MA). Equal amounts of cellular lysate protein were mixed with Laemmli sample buffer and separated by SDS-PAGE. […] The intensity of the bands was quantified by densitometry using the public domain NIH imageJ program (Wayne Rasband, NIH, Research Service Branch).

HFL1 lung fibroblasts = assay: Apoptosis flow cytometry in lung fibroblasts; type: cell-based; settings: 10 μg/ml, 48 h
Method: FIGS. 21A and 21B show a flow cytometry analysis of HFL1 lung fibroblasts after culturing for 48 h in DMEM medium containing 10 μg/ml corisin. Each had with n=4.
as §2

[4] = system: human umbilical vein endothelial cells; assay: Apoptosis flow cytometry in vascular endothelial cells; type: cell-based; settings: 10 μg/ml, 48 h
Method: FIGS. 21C and 21D show a flow cytometry analysis of human umbilical vein endothelial cells after culturing for 48 h in DMEM medium containing 10 μg/ml corisin. Each group had n=4.
as §2

human Jurkat T cells = assay: Apoptosis flow cytometry in T cells; type: cell-based; settings: 10 μg/ml, 48 h
Method: FIGS. 21E and 21F show a flow cytometry analysis of human Jurkat T cells after culturing for 48 h in DMEM medium containing 10 μg/ml corisin. Each treatment group had n=4. Bars indicate the means ±S.D. Statistical analysis was performed by ANOVA with Tukey's test.
as §2

[5] = system: A549 alveolar epithelial cells; assay: Transmission electron microscopy of apoptotic cells; type: cell-based, human; settings: 5 μM, 16 h
Method: A549 cells (10×10^4 cells/ml) were plated on a collagen-coated 8-well chamber slides (BD Bioscience, San Jose, CA) and cultured until semi-confluent. Cells were serum-starved for 6 h and stimulated with the pro-apoptotic peptide (5 μM) for 16 h. Cells were fixed with 2% fresh formaldehyde and 2.5% glutaraldehyde in 0.1 M sodium cacodylate buffer (pH 7.4) for 2 h at room temperature. After washing with 0.1 M cacodylate buffer (pH 7.4), they were postfixed with 1% OsO4 in the same buffer for 2 h at 4° C. The samples were rinsed with distilled water, stained with 1% aqueous uranyl acetate for 2 h or overnight at room temperature, dehydrated with ethanol and propylene oxide, and embedded in epon (Epon 812 resin, Nakalai). After removal of the cells from the glass, ultra-thin sections (94 nm) were cut, stained with uranyl acetate and Reynolds's lead citrate, and viewed with a transmission electron microscope (JEM-1010, JEOL, Tokyo, Japan).

TGFβ1 TG mice = assay: Intratracheal instillation of corisin in TGFβ1 TG mice with lung fibrosis; type: in vivo, mouse; settings: intratracheal once daily for two days, euthanasia day 3, vs control mice
Description: To investigate whether corisin can exacerbate the lung fibrotic disease in vivo, we separated TGFβ1 TG mice into three groups with matched level of lung fibrosis (see FIGS. 25A and 25B) and treated them with saline, scrambled peptide or corisin by the intratracheal route once daily for two days before euthanasia on day 3 (see FIG. 6A).
Under profound anesthesia, we collected bronchoalveolar lavage fluid for biochemical analysis and cell counting. Briefly, bronchoalveolar lavage fluid was performed by cannulating the trachea with a 20-gauge needle and infusing saline solutions into the lungs in accordance with NPL68. The samples were centrifuged and the supernatants were stored at −80° C. until analysis. The cell pellets were re-suspended in physiological saline solution and the number of cells was counted. A nucleocounter from ChemoMetec (Allerød, Denmark) was used for cell counting and the cells were stained with May-Grünwald-Giemsa (Merck, Darmstadt, Germany) to count differential cells. Mice were sacrificed by anesthesia overdose, and the lungs were resected to fix in formalin, embedded in paraffin and prepared for hematoxylin and eosin staining. The severity of lung fibrosis was quantitated based on the Ashcroft criteria. See NPL67. The level of TGFβ1 was measured using a commercial enzyme immunoassay kit from BD Biosciences Pharmingen (San Diego, CA).
Three groups of TGFβ1 TG mice (each n=5 or n=4) with matched grade (level) of lung fibrosis as assessed by CT score underwent intratracheal instillation of corisin or scrambled peptide or 0.9% NaCl solution on days 1 and 2 and sacrificed on day 3 to evaluate changes in lung inflammation and fibrosis. WT mice (n=3) without lung fibrosis treated with 0.9% NaCl solution were used as controls.
Staining of terminal deoxynucleotidyl transferase dUTP Nick-End Labeling (TUNEL) was performed at the Biopathology Institute Corporation (Kunisaki, Oita, Japan) by using Alexa Fluor 594 goat anti-rabbit IgG and slow-fade gold-antifade reagent with 4′,6-diamidino-2-phenylindole (DAPI) or by using ApopTag terminal deoxynucleotidyl transferase (Merck Millipore, Burlington, MA), anti-digoxigenin-peroxidase and 3,3′-diaminobenzidine. Quantification of apoptotic areas was performed using the WinROOF software (Mitani Corporation, Tokyo, Japan) and the values were averaged for each individual mouse.

Q: Which results are given for “IVMPESSGNPNAVNPAGYR (listed as Staphylococcus cohnii) [corisin, peptide of 19 amino acid residues, segment of transglycosylase 351 IsaA of Staphylococcus nepalensis strain CNDG]”?
A: pro-apoptotic activity after heating ([1]; 5 μM, incubated at 85° C. for 15 min before adding to A549 cells for 48 h): heat-resistant; apoptosis of alveolar epithelial cells [1]: induces apoptosis of alveolar epithelial cells; apoptotic activity compared with equal protein concentrations of supernatant ([1]; corisin 5 or 10 μg/ml vs supernatant protein 10 or 100 μg/ml, 48 h): significantly more potent; pro-apoptotic effect on A549 cells ([1]; increasing concentrations of synthetic corisin, 48 h, DMEM): recapitulated the pro-apoptotic effect of the staphylococcal isolate supernatant in a dose dependent manner; apoptosis of normal human bronchial epithelial cells [2]: significantly enhanced apoptosis; Akt activation [3]: decreased; cleavage of caspase-3 [3]: increased; apoptotic activity on lung fibroblast (HFL1 lung fibroblasts): no apoptotic activity; apoptotic activity on vascular endothelial cell [4]: no apoptotic activity; apoptotic activity on lymphocyte cell line (human Jurkat T cells): no apoptotic activity; apoptotic property by transmission electron micrographs [5]: confirmed the apoptotic property; apoptosis of epithelial cells in the lungs (TGFβ1 TG mice): enhanced; collagen deposition in the lungs (TGFβ1 TG mice): increased; concentration of inflammatory cytokines and chemokines in the lungs (TGFβ1 TG mice): increased; infiltration of macrophages, lymphocytes and neutrophils in the lungs (TGFβ1 TG mice): significantly increased

Q: With “IIARESNGQLHARNASGAA (listed as Staphylococcus epidermidis) [reference compound]” as the sequence, how does the “apoptosis of alveolar epithelial cells” value [1] read?
A: no pro-apoptotic effect

Q: What does the source list for “NRVYNGPAASPVSEGMPIN (listed as Staphylococcus epidermidis) [scrambled peptide, reference compound]”?
A: apoptosis of alveolar epithelial cells [1]: not; apoptosis of normal human bronchial epithelial cells [2]: did not

Q: How did the “apoptosis of A549 alveolar epithelial cells” value ([1]; 5 μM peptide, 48 h) turn out when “IVMPESGGNPNAVNPAGYR (listed as Staphylococcus warneri) [1 amino acid change from Staphylococcus nepalensis derivative]” was run?
A: induces apoptosis
